Laboratory results: patent US20240358829A1, “Lymphocyte Population and Methods for Producing Same” (AVM Biotechnology, LLC, priority 2021, published 2024)
Where “and” joins values, the source holds several entries; their conditions need not be identical. Equal entries are not always repeated. Entries after “also recorded” stand apart in the source; their conditions may differ.

Assays:
[1] = test system: hCD45+CD56+γδTCR+invTCR+ cells; assay: Humanized mice experiments LYDEP 43 and 45, flow cytometry of blood and bone marrow; type: in vivo, mouse
Procedure: Female huNOG-EXL mice (n=6) were obtained from Taconic Bioscience (Germantown, NY). Female huCD34-NCG mice (n=8) were obtained from Charles River (Wilmington, MA). Mice from both facilities were acclimated to laboratory conditions for at least 5-6 days.
After first (03/01/2021) and second dose 1 week later (03/08/2021), when mice reached predetermined time point, they were bled up to 70 μL of blood/mouse via cheek puncture. The blood was analyzed via flow cytometry. After third dose 28 days after the previous dose (on Apr. 5, 2021), when mice reached the study time point, they were euthanized under standard operating procedure summarized here: Mice were anesthetized with isoflurane gas.
Spleen, Thymus, femurs, and sternum were collected for all mice. Spleen and thymus were processed into single cell suspension for analysis via flow cytometry. Bones were cleaned of muscle using gauze soaked with 70% ethanol and processed for bone marrow to analyze via flow cytometry. Pancreas and colon dissection were performed according to video and instructional JoVE files. The feces were expelled via administering ice-cold PBS with a 22-gauge gavage tube from colon. Other organs like small intestines, cecum, kidneys, lungs, and liver were also collected. All organ weights were recorded after removing excess liquid from the exterior. Soft organs were first fixed in 4% PFA and then transferred to 70% ethanol 24 hrs later and stored at 4° C. Bones were stored directly in 70% ethanol at 4° C. Blood was processed for flow cytometry analysis, and serum collection.
All flow cytometry was performed in house. Blood, spleen, thymus, and bone marrow were processed via standard staining protocol for flow cytometry. MACSQUANT 16 was used for flow cytometry. Antibody panels slightly varied between first, second and third dose. Markers in the flow panel after first dose analysis included Live/Dead, hCD45, mCD45, hCD56, hTCRgd, hCD3, hCD8, hCD16, hCD19, hCD14. Markers in the flow panel after second dose included all the above, plus hTCRab and hiTCR. In the blood analysis after second dose, 7AAD, CD14 and CD19 were included together in a dump channel. […] For the third dose panel design, when full sac was performed, all markers mentioned above were assigned unique channels to avoid overlap, but TCRab was not included in the final panel due to open channel limitations.
For cheek bleeds, 70 ul of blood was collected in EDTA coated microtainer and proceeded for immunostaining. […] Blood was stained for live dead marker for 10 min at Room temperature and then for the surface antibodies mentioned above for 20 minutes at room temperature in dark. RBCs were lysed with BD FACS lysing buffer and washed with DPBS and resuspended in 300 ul DBPS. 250 ul of sample was run on MACSquant 16 flow cytometer.

[2] = test system: CD56+γδTCR+ NKT-like cells
Procedure: For characterisation of the induced/mobilized population of NKT-like cells (AVM-NKT) in humans, whole blood from human subjects was drawn in K2 EDTA Vacutainer tube (367862, BD Biosciences, NJ) and shipped to AVM Biotechnology at room temperature. 100 μl of whole blood was stained with the following antibodies: CD45 AF700 (2D1), CD16 APC (3G8), INKT PECy7 (6B11), CD8 PE (SK1), CD14 FITC (M5E2), CD56 BV650 (5.1H11), γδTCR BV510 (B1), CD19 BV421 (HIB19), NKp44 APC (P44-8) (all from Biolegend, San Diego, CA) and CD3 APCVio770 (BW264/56), (Miltenyi Biotec, San Jose, CA), 7-AAD, (Biolegend, San Diego CA) was included to distinguish the live and dead cells. Antibody staining was performed for 15 minutes at room temperature. Erythrocytes present in the sample were lysed using BD FACS lyse (BD Biosciences, San Diego CA) for 10 minutes at room temperature, then washed and resuspended in 300 μl 1×DPBS CMF. Healthy patient blood from BloodWorks (Seattle, WA), unstained and fluorescence minus one (FMO) were included as controls. 250 μl sample was analyzed on MACSQuant 16 (Serial #40150, Miltenyi Biotec, San Jose, CA) flow cytometer. Data was analyzed using Kaluza 2.1 (Beckman Coulter Lifesciences, Indianapolis, IN) software for different immune population. Data obtained from flow cytometry analyzed by Kaluza were combined to determine different cell populations gated from Live CD45 Lymphocytes: CD3+ T cell, CD8+ cytotoxic T cell, CD3+CD56+ (NKT cells) CD3-CD56+, CD3-CD56bright (NK cells) and CD3-CD19+ (B cells), CD3+γδTCR+ cells, CD3+γδTCR bright cells, CD3+iTCR+ cells, Live WBC CD3-CD16bright granulocytes, Live WBC CD3-CD14+ monocytes. Numbers were reported as % WBC and as cells per μl.

R/R NHL = assay: AVM0703 R/R NHL clinical trial, clinical and PET/CT response, survival; type: in vivo, human
[3] = CR (Charles River) humanized mice, AVM0703 72 hrs
[4] = Tac (Taconic) humanized mice, AVM0703 72 hrs
[5] = blood, mouse 10 Taconic NOG-EXL, FIG. 24
[6] = patient 108-001, after the second 9 mg/kg infusion

C[C@@H]1C[C@H]2[C@@H]3CCC4=CC(=O)C=C[C@]4(C)[C@@]3(F)[C@@H](O)C[C@]2(C)[C@@]1(O)C(=O)COP(=O)(O)O [AVM0703, dexamethasone sodium phosphate]
hCD45+(CD56+gdTCR+ inTCR+) [1, 3]: 4.4% and 1.8% and 2.3% and 3.5%
hCD45+(CD56+gdTCR+) [1, 3]: 4.7% and 6.3% and 1.1% and 1.6%
hCD45+(CD56+gdTCR+) ([1]; CR (Charles River) humanized mice, AVM0703 96 hrs): 1.1% and 0.4% and 4.4% and 1.4%
hCD45+(CD56+gdTCR+ inTCR+) [1, 4]: 0.7%
hCD45+(CD56+gdTCR+) [1, 4]: 10.5% and 3.4%
hCD45+(CD56+gdTCR+ inTCR+) ([1]; Tac (Taconic) humanized mice, AVM0703 96 hrs): 22.6% and 41.9%
% of hCD45+CD56+gdTCR+ cells expressing invariant TCR ([1]; blood, CRL-NCG humanized mice, >18 mg/kg HED): More than 97%
bi-specific immune cell mobilization, % of hCD45+ cells ([1]; blood, humanized mice, >18 mg/kg HED): 2-12%
% of hCD45+ dim CD56+ gdTCR+ cells positive for CD8 and for CD16 [1, 5]: More than 80%
CD56+ TCRγδ+ cells, % of hCD45+ cells [1, 5]: 12%
bi-specific immune cells, % of hCD45+ cells ([1]; blood, mouse M1, CRL-NCG, >18 mg/kg HED): 3.35%
bi-specific immune cells, % of hCD45+ cells ([1]; blood, mouse M3, CRL-NCG, >18 mg/kg HED): 4.13%
bi-specific immune cells, % of hCD45+ cells ([1]; blood, mouse M5, CRL-NCG, >18 mg/kg HED): 5.14%
bi-specific immune cells, % of hCD45+ cells ([1]; blood, mouse M7, CRL-NCG, >18 mg/kg HED): 2.37%
% of human CD45+CD56+ cells bispecific for TCRγδ and invariant TCR and CD16 positive ([1]; bone marrow, 48-60 hours after a third repeat dose of 32 mg/kg HED): More than 60%
expression and mobilization of human CD56+γδTCR+invTCR+ immune cells ([1]; both vendors, all 6 umbilical cord blood donors, 32 mg/kg DP oral): induced the expression and mobilization
% of bispecific γδTCR+invTCR+ bone marrow cells that are CD16+ ([1]; humanized mice, >18 mg/kg HED): Around 90%
bi-specific immune cells in bone marrow, % of hCD45+ cells ([1]; humanized mice, >18 mg/kg HED): 0.3-8.5%
% of the CD56+ cells positive for both γδTCR and iTCR ([2]; lysed whole blood, FIG. 14): 51%
CD8 dim/-, % CD56+γδTCR+ ([2]; representative subject): ~98%
CD14+, % CD56+γδTCR+ ([2]; representative subject): 67%
CD16+, % CD56+γδTCR+ ([2]; representative subject): 86%
CD19+, % CD56+γδTCR+ ([2]; representative subject): 85%
NKp44 positive, % CD56+γδTCR+ ([2]; representative subject): ~97%
iNKT positive, % CD56+γδTCR+ ([2]; representative subject): ~96%
CD56+γδTCR+ cells, % of WBC ([2]; whole blood, within 30 minutes post infusion): 1.64%
CD16 and NKp46 expression, % of the AVM_NKT cells ([2]; γδTCR+iTCR+ quadrant, FIG. 14): ~100%
Survival from 1st AVM0703 (months) (R/R NHL; patient 101-001, B-ALL, 6 mg/kg X1): 4.8 months
Survival from 1st AVM0703 (months) (R/R NHL; patient 103-002, PTCL, 6 mg/kg X1): 7 months
Survival from 1st AVM0703 (months) (R/R NHL; patient 103-004, T-ALL, 6 mg/kg X1): 2.7 months
Survival from 1st AVM0703 (months) (R/R NHL; patient 103-005, MCL, 9 mg/kg X1): 8.3 months
Survival from 1st AVM0703 (months) (R/R NHL; patient 103-006, DLBCL, 9 mg/kg X1, ongoing): >12.6 months
Survival from 1st AVM0703 (months) (R/R NHL; patient 103-007, MCL, 12 mg/kg X1, ongoing): >7.6 months
Survival from 1st AVM0703 (months) (R/R NHL; patient 103-008, DLBCL, 18 mg/kg X1, ongoing): >2.1 months
clinical response (R/R NHL; patient 108-001, 9 mg/kg, day 3 after 1st infusion): restoration of vision
Survival from 1st AVM0703 (months) (R/R NHL; patient 108-001, CNS B-ALL, 9 mg/kg X3, ongoing): >11.8 months
CNS solid tumor (R/R NHL; [6]): not evident
reduction of CSF blasts (R/R NHL; [6]): 40%
response to the third infusion (R/R NHL; patient 108-001, third 9 mg/kg infusion): loss of response
Survival from 1st AVM0703 (months) (R/R NHL; patient 108-002, PTCL, 18 mg/kg X1, ongoing): >10.3 months
central Lugano 28 Day (R/R NHL; patient 108-002, PTCL, 18 mg/kg, monotherapy): PR with SD
Survival from 1st AVM0703 (months) (R/R NHL; patient 108-003, AITCL, 12 mg/kg X2, ongoing): >10.2 months
objective beneficial response (PET/CT, clinical chemistries, CBCs or clinical symptoms) (R/R NHL; patient 108-004, 12 mg/kg): did not have any objective clinical beneficial response; also recorded: did not have an objective beneficial response; also recorded: no response to treatment
Survival from 1st AVM0703 (months) (R/R NHL; patient 108-004, DLBCL, 12 mg/kg X1, ongoing): >8 months
